Results reported in ChEMBL document CHEMBL3297733, “Discovery and optimization of pyrrolo[1,2-a]pyrazinones leads to novel and selective inhibitors of PIM kinases” (Bioorg Med Chem, 2013).

How the values were obtained:
[1] = molecular target: Serine/threonine-protein kinase pim-1 (Homo sapiens, UniProt P11309); experiment: Inhibition of human PIM1 using ARK-RERTYSFGHHA as substrate incubated for 60 mins prior to substrate addition by topcount scintillation counting analysis in presence of [P33gamma]-ATP
Serine/threonine-protein kinase pim-1, sequence (P11309 whole entry): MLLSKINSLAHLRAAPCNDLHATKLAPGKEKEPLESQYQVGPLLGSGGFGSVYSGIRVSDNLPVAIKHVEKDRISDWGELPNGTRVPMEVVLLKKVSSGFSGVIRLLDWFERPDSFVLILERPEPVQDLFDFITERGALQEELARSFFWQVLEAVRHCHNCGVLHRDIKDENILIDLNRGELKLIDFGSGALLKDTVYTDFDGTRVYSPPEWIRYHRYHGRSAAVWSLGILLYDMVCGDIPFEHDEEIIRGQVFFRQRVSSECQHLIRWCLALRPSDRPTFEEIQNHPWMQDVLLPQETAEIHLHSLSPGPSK

[2] = Intrinsic clearance in human liver microsomes after 5 mins by LC-MS/MS analysis; type: ADME; conditions: read-out: CLH
[3] = Cytotoxicity against mouse BA/F3 cells overexpressing PIM1 after 72 hrs by CellTitre-Glo assay; type: functional, cell-based; conditions: BaF3, 72 h
[4] = Apparent permeability from apical to basolateral side in human Caco2 cells after 120 mins by LC-MS/MS analysis; conditions: Caco-2
[5] = molecular target: Serine/threonine-protein kinase pim-2 (Homo sapiens, UniProt Q9P1W9); experiment: Inhibition of human PIM2 using ARK-RERTYSFGHHA as substrate incubated for 60 mins prior to substrate addition by topcount scintillation counting analysis in presence of [P33gamma]-ATP
Serine/threonine-protein kinase pim-2, sequence (Q9P1W9 whole entry): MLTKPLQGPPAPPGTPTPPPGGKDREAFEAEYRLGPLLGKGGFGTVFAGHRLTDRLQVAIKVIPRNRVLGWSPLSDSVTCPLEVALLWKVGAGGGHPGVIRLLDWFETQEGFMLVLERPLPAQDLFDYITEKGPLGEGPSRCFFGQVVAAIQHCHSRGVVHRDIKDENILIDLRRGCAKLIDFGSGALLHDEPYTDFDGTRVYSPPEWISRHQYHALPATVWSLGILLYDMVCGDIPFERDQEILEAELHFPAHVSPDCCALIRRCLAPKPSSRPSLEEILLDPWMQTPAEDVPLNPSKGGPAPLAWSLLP

[6] = molecular target: Cell division cycle 7-related protein kinase (Homo sapiens, UniProt O00311); experiment: Inhibition of CDC7 (unknown origin)
Cell division cycle 7-related protein kinase, sequence (O00311 whole entry): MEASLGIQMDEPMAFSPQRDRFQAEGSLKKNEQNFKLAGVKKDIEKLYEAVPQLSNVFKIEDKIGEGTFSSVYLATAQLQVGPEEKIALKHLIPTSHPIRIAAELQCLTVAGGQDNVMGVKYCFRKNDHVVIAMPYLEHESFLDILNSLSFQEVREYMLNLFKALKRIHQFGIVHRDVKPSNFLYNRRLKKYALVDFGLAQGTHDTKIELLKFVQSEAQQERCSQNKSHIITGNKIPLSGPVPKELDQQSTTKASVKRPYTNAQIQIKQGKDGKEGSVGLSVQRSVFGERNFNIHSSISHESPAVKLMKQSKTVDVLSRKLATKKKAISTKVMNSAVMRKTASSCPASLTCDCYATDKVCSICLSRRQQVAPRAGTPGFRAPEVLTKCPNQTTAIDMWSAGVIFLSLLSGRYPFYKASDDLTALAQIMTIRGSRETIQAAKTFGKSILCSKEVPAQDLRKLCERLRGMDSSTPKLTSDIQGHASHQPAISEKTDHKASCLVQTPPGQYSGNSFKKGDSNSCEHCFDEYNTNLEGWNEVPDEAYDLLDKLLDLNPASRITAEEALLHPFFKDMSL

[7] = molecular target: Glycogen synthase kinase-3 beta (Homo sapiens, UniProt P49841); experiment: Inhibition of GSK3beta (unknown origin)
Glycogen synthase kinase-3 beta, sequence (P49841 whole entry): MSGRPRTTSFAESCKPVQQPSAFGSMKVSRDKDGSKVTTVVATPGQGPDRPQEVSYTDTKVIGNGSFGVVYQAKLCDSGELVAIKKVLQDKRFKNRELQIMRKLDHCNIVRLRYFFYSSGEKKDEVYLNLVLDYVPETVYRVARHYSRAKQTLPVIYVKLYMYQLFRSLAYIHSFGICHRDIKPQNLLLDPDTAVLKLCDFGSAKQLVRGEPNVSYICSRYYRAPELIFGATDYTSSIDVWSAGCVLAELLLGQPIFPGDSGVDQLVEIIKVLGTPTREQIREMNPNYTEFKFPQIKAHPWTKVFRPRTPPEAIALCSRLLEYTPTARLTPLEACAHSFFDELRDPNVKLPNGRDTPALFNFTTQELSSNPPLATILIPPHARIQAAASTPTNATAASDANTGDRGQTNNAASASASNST

[8] = molecular target: Cyclin-dependent kinase 2 (Homo sapiens, UniProt P24941); experiment: Inhibition of CDK2 (unknown origin)
[9] = Thermodynamic aqueous solubility of the compound at pH 7; type: physicochemical; conditions: buffer
[10] = molecular target: Platelet-derived growth factor receptor (Homo sapiens, UniProt P09619+P16234); experiment: Inhibition of PDGFR (unknown origin); type: protein-complex assay
Casein kinase II = Casein kinase II (Homo sapiens, UniProt P19784+P67870+P68400); experiment: Inhibition of CK2 (unknown origin); type: protein-complex assay
Casein kinase II, sequence (P67870 whole entry): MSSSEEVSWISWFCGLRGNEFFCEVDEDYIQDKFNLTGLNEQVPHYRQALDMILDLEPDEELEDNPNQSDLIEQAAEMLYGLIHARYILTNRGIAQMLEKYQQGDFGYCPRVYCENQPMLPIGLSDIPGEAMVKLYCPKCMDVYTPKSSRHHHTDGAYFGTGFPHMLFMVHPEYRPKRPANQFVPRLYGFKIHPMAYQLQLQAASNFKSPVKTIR
Casein kinase II, sequence (P68400 whole entry): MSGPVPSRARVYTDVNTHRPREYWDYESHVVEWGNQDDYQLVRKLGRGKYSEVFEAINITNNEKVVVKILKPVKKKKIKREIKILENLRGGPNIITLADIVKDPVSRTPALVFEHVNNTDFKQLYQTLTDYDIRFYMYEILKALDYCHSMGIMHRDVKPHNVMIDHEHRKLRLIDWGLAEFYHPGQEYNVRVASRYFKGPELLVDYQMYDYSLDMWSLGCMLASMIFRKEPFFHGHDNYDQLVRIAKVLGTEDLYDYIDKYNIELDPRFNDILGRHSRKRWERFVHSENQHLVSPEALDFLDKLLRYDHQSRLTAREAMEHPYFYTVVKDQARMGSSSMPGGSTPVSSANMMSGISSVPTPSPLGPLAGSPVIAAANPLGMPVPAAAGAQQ
Casein kinase II, sequence (P19784 whole entry): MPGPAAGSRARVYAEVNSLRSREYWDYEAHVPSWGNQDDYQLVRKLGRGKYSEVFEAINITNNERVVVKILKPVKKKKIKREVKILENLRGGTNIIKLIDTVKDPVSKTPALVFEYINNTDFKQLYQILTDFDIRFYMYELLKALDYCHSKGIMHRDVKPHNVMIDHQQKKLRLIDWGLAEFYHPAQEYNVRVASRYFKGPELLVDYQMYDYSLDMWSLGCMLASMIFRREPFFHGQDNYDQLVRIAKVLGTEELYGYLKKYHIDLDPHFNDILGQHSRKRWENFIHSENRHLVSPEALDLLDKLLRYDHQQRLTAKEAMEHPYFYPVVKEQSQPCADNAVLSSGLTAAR

[11] = Apparent permeability by PAMPA; type: physicochemical

SMILES | IC50 [1] [nM] | CLint scaled [2] [mL/min/kg] | Papp A→B at 2 h [4] [×10⁻⁶ cm/s] | IC50 [3] [nM] | further results
O=C(CC1CNC(=O)c2cc(-c3cccc(C(F)(F)F)c3)cn21)NCc1cccc(F)c1 (racemic) | 614 |  |  |  | 
O=C(CC1CNC(=O)c2cc(-c3cccc(C(F)(F)F)c3)cn21)NCC1CCCCC1 (racemic) | 375 |  |  |  | 
NC[C@@H](NC(=O)C[C@H]1CNC(=O)c2cc(-c3cccc(F)c3)cn21)C1CCCCC1 | 12 | 10.1 | 0.8 | > 10000 | IC50 [5]: 275 nM
CC(C)(C)CNC(=O)CC1CNC(=O)c2cc(-c3ccccc3)cn21 (racemic) | 2540 |  |  |  | 
CC(C)(C)CNC(=O)CC1CNC(=O)c2cc(-c3ccsc3)cn21 (racemic) |  | 81 |  |  | Therm_solubility [9]: 68 mg/mL; IC50 [10]: > 10000 nM; IC50 (Casein kinase II): > 10000 nM; Papp [11]: 48 ×10⁻⁶ cm/s
O=C(CC1CNC(=O)c2cc(-c3ccccc3F)cn21)NCC1CCCCC1 (racemic) | 124 | 400 | 11.9 | 1790 | 
CN1CCN(C[C@@H](NC(=O)C[C@H]2CNC(=O)c3cc(-c4cccc(Cl)c4)cn32)C(C)(C)C)CC1 | 5 |  |  |  | IC50 [5]: 262 nM
O=C(CC1CNC(=O)c2cc(-c3cccc(F)c3)cn21)NCC1CCCCC1 (racemic) |  | 48.5 | 11.2 | 1110 | 
CC(C)(C)CNC(=O)CC1CNC(=O)c2cc(-c3ccc(F)cc3)cn21 (racemic) | 2550 |  |  |  | 
O=C(CC1CNC(=O)c2cc(-c3cccc(C(F)(F)F)c3)cn21)NCC1CCOCC1 (racemic) | 838 |  |  |  | IC50 [5]: 3130 nM
NC[C@@H](NC(=O)C[C@H]1CNC(=O)c2cc(-c3cccc(F)c3)cn21)c1ccccc1 | 10 | 8.3 | 0.6 | > 10000 | 
CN1CCN(C[C@@H](NC(=O)C[C@H]2CNC(=O)c3cc(-c4cc(Cl)ccc4F)cn32)C2CCCCC2)CC1 |  |  |  | 147 | 
C[C@@H](CN1CCN(C)CC1)NC(=O)C[C@H]1CNC(=O)c2cc(-c3cccc(Cl)c3)cn21 | 530 |  |  |  | IC50 [5]: > 5000 nM
O=C(C[C@H]1CNC(=O)c2cc(-c3cccc(F)c3)cn21)N[C@H](CO)C1CCCCC1 | 16 | 14.6 | 1.1 | 1530 | 
O=C(C[C@H]1CNC(=O)c2cc(-c3cccc(F)c3)cn21)N[C@H](CO)c1ccccc1 | 87 | 55 | 2.7 | 3720 | 
Cc1ccc(Cl)cc1-c1cc2n(c1)C(CC(=O)NCc1ccco1)CNC2=O (racemic) | > 5000 |  |  |  | IC50 [5]: > 5000 nM

More lines, main results first:

IC50 [1] [nM] | CLint scaled [2] [mL/min/kg] | Papp A→B at 2 h [4] [×10⁻⁶ cm/s] | SMILES | IC50 [3] [nM] | further results
1940 |  |  | CC(C)(C)CNC(=O)CC1CNC(=O)c2cc(-c3cccc(F)c3)cn21 (racemic) |  | 
33 | 197 | 0.9 | O=C(CC1CNC(=O)c2cc(-c3ccnc(Cl)n3)cn21)NCC1CCCCC1 (racemic) | > 5000 | IC50 [5]: 1320 nM
 | 5 | 1.01 | CN(C)C1CCN(C[C@@H](NC(=O)C[C@H]2CNC(=O)c3cc(-c4cccc(Cl)c4)cn32)C2CCCCC2)CC1 | 480 | 
141 | 87.8 | 1.3 | O=C(C[C@H]1CNC(=O)c2cc(-c3cccc(F)c3)cn21)N[C@H](CO)Cc1ccccc1 | 3050 | 
1100 |  |  | O=C(CC1CNC(=O)c2cc(-c3cn[nH]c3)cn21)NCc1cccc(F)c1 (racemic) |  | IC50 [6]: 284 nM; IC50 [7]: 386 nM; IC50 [8]: 60 nM
521 |  |  | CC(C)(C)CNC(=O)CC1CNC(=O)c2cc(-c3cccc(C(F)(F)F)c3)cn21 (racemic) |  | 
9 | 6.7 |  | CN1CCN(C[C@@H](NC(=O)C[C@H]2CNC(=O)c3cc(-c4cccc(F)c4)cn32)C2CCCCC2)CC1 | 490 | IC50 [5]: 150 nM
1270 |  |  | CC(C)(C)CNC(=O)CC1CNC(=O)c2cc(-c3cccc(OC(F)(F)F)c3)cn21 (racemic) |  | 
26 |  |  | CN1CCN(C[C@@H](NC(=O)C[C@H]2CNC(=O)c3cc(-c4ccc(F)c(F)c4)cn32)C2CCCCC2)CC1 | 156 | IC50 [5]: 250 nM
 | 6.5 | 0.9 | NC[C@@H](NC(=O)C[C@H]1CNC(=O)c2cc(-c3ccnc(F)c3)cn21)c1ccccc1 | > 10000 | 
5470 |  |  | CC(C)(C)CNC(=O)CC1CNC(=O)c2cc(-c3ccncc3)cn21 (racemic) |  | IC50 [7]: 4610 nM
125 |  |  | O=C(CC1CNC(=O)c2cc(-c3ccc(F)c(F)c3)cn21)NCc1ccco1 (racemic) | 3640 | 
233 |  |  | CN1CCN(C(=O)C[C@H]2CNC(=O)c3cc(-c4cccc(F)c4)cn32)[C@@H](c2ccccc2)C1 |  | 
94 | 400 | 11.8 | O=C(CC1CNC(=O)c2cc(-c3ccc(F)c(F)c3)cn21)NCC1CCCCC1 (racemic) | 1270 | 
1720 |  |  | CC(C)(C)CNC(=O)CC1CNC(=O)c2cc(-c3ccccc3F)cn21 (racemic) |  | 
> 10000 |  |  | CC(C)(C)CNC(=O)CC1CNC(=O)c2cc(-c3ccc(OC(F)(F)F)cc3)cn21 (racemic) |  | 
 | 97.4 | 33.1 | O=C(CC1CNC(=O)c2cc(-c3cccc(Cl)c3)cn21)NCc1ccco1 (racemic) | 2430 | 
132 |  |  | O=C(CC1CNC(=O)c2cc(-c3cc(Cl)ccc3F)cn21)NCc1ccco1 (racemic) |  | IC50 [5]: 2410 nM
13 |  | 0.33 | CN1CCN(C[C@@H](NC(=O)C[C@H]2CNC(=O)c3cc(-c4ccnc(F)c4)cn32)C2CCCCC2)CC1 | 2480 | IC50 [5]: 95 nM
